Data taken from publication PMC9189076 (Oncogene, 2022).

Columns and labels:
[1] = target: T1, WDR5 (Homo sapiens, UniProt P61964); assay: Isothermal titration calorimetry; format: binding; conditions: for binding to WDR5 (ITC, in words): MS169 compared to MS40
[2] = target: CRBN's C-terminal thalidomide binding domain (CRBN-TBD) (Homo sapiens, UniProt Q96SW2); assay: ITC, binding to CRBN thalidomide-binding domain
[3] = tested on: H3K4me2; assay: Global histone methylation immunoblotting in MV4; format: cell-based, human; conditions: MV4;11 cells, 0.5 μM, 4 days
[4] = tested on: MV4;11 cells; assay: RNA-seq transcriptomic profiling in MV4; format: cell-based, human
[5] = target: T1, WDR5; conditions: five lines of MLL-r AML and eight lines of breast cancer, 18 h
[6] = tested on: IKZF1 and IKZF3; assay: IKZF1/IKZF3 degradation by immunoblotting in cells; format: cell-based, human; conditions: MV4;11, RS4;11 and other cell lines
[7] = tested on: MLL-AF9 + AML PDX tumors; assay: MLL-AF9+ AML PDX subcutaneous xenograft efficacy; format: in vivo, NSG-SGM3 mice; conditions: i.p. once a day, 5 days per week; MS40 100 mg/kg, MS169 34 mg/kg, MS40N2 100 mg/kg
[8] = Compound concentrations in plasma and tumor of PDX-bearing mice; format: in vivo, NSG-SGM3 mice; conditions: two hours post last dose; MS40 100 mg/kg, MS169 34 mg/kg, MS40N2 100 mg/kg
[9] = target: VHL–Elongin C–Elongin B ternary complex (VCB) (Homo sapiens, UniProt P40337); assay: ITC, binding to VHL E3 ligase complex; conditions: compared to MS40
Sequence of VHL–Elongin C–Elongin B ternary complex (VCB) (P40337 54-213 limits assumed): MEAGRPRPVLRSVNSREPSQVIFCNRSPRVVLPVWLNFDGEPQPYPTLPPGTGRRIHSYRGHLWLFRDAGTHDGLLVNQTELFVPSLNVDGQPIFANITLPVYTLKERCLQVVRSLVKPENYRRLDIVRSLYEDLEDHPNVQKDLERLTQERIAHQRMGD
Sequence of VHL–Elongin C–Elongin B ternary complex (VCB) (Q15369 17-112 partner limits assumed): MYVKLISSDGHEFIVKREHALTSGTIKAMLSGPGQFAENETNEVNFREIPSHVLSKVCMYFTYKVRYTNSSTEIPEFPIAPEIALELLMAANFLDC
Sequence of VHL–Elongin C–Elongin B ternary complex (VCB) (Q15370 1-104 partner limits assumed): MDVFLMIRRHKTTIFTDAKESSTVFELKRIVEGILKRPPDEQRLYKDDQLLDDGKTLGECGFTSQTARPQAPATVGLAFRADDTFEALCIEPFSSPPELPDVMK

[10] = target: LIMD1 (Homo sapiens, UniProt Q9UGP4); assay: LIMD1 degradation by immunoblotting in MV4; format: cell-based; conditions: MV4;11 and RS4;11 cells, 0.5 μM, 18 h
Sequence of LIMD1 (Q9UGP4 whole entry): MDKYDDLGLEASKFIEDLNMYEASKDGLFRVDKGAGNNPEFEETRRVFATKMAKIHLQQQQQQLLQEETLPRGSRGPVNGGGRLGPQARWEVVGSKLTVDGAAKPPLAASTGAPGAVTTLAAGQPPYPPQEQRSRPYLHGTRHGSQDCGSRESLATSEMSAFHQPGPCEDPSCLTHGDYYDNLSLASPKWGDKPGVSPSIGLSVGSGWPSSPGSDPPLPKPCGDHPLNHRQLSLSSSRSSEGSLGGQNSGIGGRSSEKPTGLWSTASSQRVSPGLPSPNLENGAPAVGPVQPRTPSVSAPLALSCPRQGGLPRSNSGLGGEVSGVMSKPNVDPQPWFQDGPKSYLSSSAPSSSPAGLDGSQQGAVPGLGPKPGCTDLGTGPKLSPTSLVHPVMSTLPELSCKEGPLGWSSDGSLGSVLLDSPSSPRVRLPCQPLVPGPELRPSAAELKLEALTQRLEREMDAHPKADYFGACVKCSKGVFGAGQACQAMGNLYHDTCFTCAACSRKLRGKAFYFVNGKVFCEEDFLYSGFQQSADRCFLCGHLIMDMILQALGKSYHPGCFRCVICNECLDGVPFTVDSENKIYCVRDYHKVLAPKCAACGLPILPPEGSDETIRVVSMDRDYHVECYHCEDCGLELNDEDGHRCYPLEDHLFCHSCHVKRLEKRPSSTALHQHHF

[11] = tested on: BT549 and SUM149 breast cancer cells; assay: Anti-proliferative effect in breast cancer cells; format: cell-based; conditions: MS40 relative to MS40N1 and OICR-9429
[12] = target: CRBN-TBD; conditions: read-out: KD, affinity to CRBN-TBD; cited from earlier work

Sequence of CRBN's C-terminal thalidomide binding domain (CRBN-TBD) (Q96SW2 318-426 limits assumed): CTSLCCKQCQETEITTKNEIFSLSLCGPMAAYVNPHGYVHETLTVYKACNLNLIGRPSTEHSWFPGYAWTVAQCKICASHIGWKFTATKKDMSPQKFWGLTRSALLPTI

## CN1CCN(c2ccc(-c3cccc(CN4CCN(CCNC(=O)CCCCCCCNc5cccc6c5C(=O)N(C5CCC(=O)N(C)C5=O)C6=O)CC4)c3)cc2NC(=O)c2c[nH]c(=O)cc2C(F)(F)F)CC1 (stereo not shown) [MS40N1]
[1]; ITC
  fold lower binding affinity to WDR5 compared to OICR-9429: 4 fold
[1]; read-out: KD, binding affinity to WDR5, ITC, 25 °C, mean ± SD of three experiments
  Kd: 0.13 ± 0.001 µM
[2]; 25 °C, mean ± SD
  KD, affinity to CRBN-TBD: no binding was observed
[3]
  global H3K4me2 level: but not OICR-9429 or MS40N1
[4]
  gene-expression changes compared to DMSO (RNA-seq): did not result in significant gene-expression changes
[5]
  WDR5 degradation in panel of cell lines: did not induce notable WDR5 reduction

## O=C(CCCCCCCNc1cccc2c1C(=O)N(C1CCC(=O)NC1=O)C2=O)NCCN1CCN(Cc2cccc(-c3ccc(N4CCOCC4)c(NC(=O)c4c[nH]c(=O)cc4C(F)(F)F)c3)c2)CC1 (stereo not shown) [MS40N2]
[1]
  binding to WDR5 (ITC, in words): not bind WDR5
[2]
  binding to CRBN (ITC, in words): bind CRBN with a similar affinity as MS40
[6]
  IKZF1/IKZF3 degradation (immunoblot): induced degradation of IKZF1 and IKZF3
[7]
  PDX tumor growth compared to vehicle: no detected inhibitory effects on PDX tumor growth
[8]
  detected concentrations in plasma and tumor samples post-treatment: higher than those of MS40

## Cc1ncsc1-c1ccc(CNC(=O)[C@@H]2C[C@@H](O)CN2C(=O)[C@@H](NC(=O)CCCCCCCCCC(=O)NCCN2CCN(Cc3cccc(-c4ccc(N5CCN(C)CC5)c(NC(=O)c5c[nH]c(=O)cc5C(F)(F)F)c4)c3)CC2)C(C)(C)C)cc1 [MS169]
[1]
  binding to WDR5 (ITC, in words): comparable binding affinities to WDR5 and E3 ligase
[9]
  binding to E3 ligase (ITC, in words): comparable binding affinities to WDR5 and E3 ligase
[6]
  IKZF1/IKZF3 degradation (immunoblot): without affecting IKZF1/3
[7]
  PDX tumor growth compared to vehicle: no detected inhibitory effects on PDX tumor growth
[8]
  detected concentrations in plasma and tumor samples post-treatment: higher than those of MS40

## CN1CCN(c2ccc(-c3cccc(CN4CCOCC4)c3)cc2NC(=O)c2c[nH]c(=O)cc2C(F)(F)F)CC1 [OICR-9429]
[3]
  global H3K4me2 level: but not OICR-9429 or MS40N1

## Nc1cccc2c1C(=O)N(C1CCC(=O)NC1=O)C2=O (stereo not shown) [pomalidomide]
[6]
  IKZF1/IKZF3 degradation (immunoblot): led to degradation of IKZF1/3
[10]
  LIMD1 degradation (immunoblot): but not LIMD1
[3]
  global H3K4me2 level: did not affect global H3K4me2
[11]
  anti-proliferative effect in BT549 and SUM149: unaffected
[12]
  Kd: 16 ± 4 µM
